# Reference: patent publication US20120258980A1, “Antibacterial Agent for Drug-Resistant Bacteria, Method for Screening for Same, and Use of Same” (priority 2009, published 2012)
# What was measured:
# [1] = system: MRSA, CA-MRSA and MSSA of Staphylococcus aureus; test: MIC measurement, Test Example 4 (MRSA, CA-MRSA and MSSA strains); format: cell-based
# Description: (§1) Each of the bacterial strains listed in Table 1-1 was shake-cultured at 37° C. overnight in 4 mL of a medium (Tryptical Soy Broth: TSB, product of Becton Dickinson and Company). FDA209P was used as a control.
# (§2) After completion of culturing, the resultant culture was suspended in a cation-adjusted Mueller Hinton Broth (CAMHB, product of Becton Dickinson and Company). Then, the obtained bacterial culture was adjusted in absorbance with the CAMHB so that the absorbance at 578 nm of the bacterial culture was adjusted to 0.3 measured by an absorption spectrometer. In addition, the resultant bacterial culture was 500-fold diluted with the CAMHB.
# (§3) Each of the 500-fold diluted, pre-cultured bacterial cultures was added at 50 μL/well to the CAMHB containing the quinolones and the nybomycins at various concentrations (50 μL/well), followed by statically culturing at 37° C. overnight.
# (§4) After completion of culturing, the growth of the bacteria was visually determined based on turbidity to measure MIC in each bacterial strain.
# Glycopeptides, imipenem, quinolones and nybomycins were studied for antibacterial activity against the bacterial strains listed in Table 2-1; i.e., MRSA, CA-MRSA and MSSA of Staphylococcus aureus.
# [2] = system: methicillin-susceptible S. aureus (MSSA), MRSA and mutants thereof; test: MIC measurement, Test Example 3 (MSSA, MRSA and sequential gyrA/grlA quinolone-resistant mutants); format: cell-based, Staphylococcus aureus
# Text: That is, the first-step quinolone-resistant mutants are bacterial strains which are the same as their parent strains (clinical isolates) except that the genes shown in the corresponding parts of Table 1-1 are mutated. The second-step quinolone-resistant mutants are bacterial strains which are the same as the first-step quinolone-resistant mutants except that the genes shown in the corresponding parts of Table 1-1 are further mutated. The third-step quinolone-resistant mutants are bacterial strains which are the same as the second-step quinolone-resistant mutants except that the genes shown in the corresponding parts of Table 1-1 are further mutated. The fourth-step quinolone-resistant strain is a bacterial strain which is the same as the third-step quinolone-resistant mutant bacteria except that the gene shown in the corresponding part of Table 1-1 is further mutated.
# as §1, §2, §3, §4
# Enterococcus faecalis = test: MIC measurement, Test Example 6 (enterococcus); format: cell-based
# Description: as §1, §2, §3, §4
# Quinolones and nybomycins were evaluated for antibacterial activity against Enterococcus faecalis shown in Table 6, wherein the other strains than NCTC12201 and NCTC12203 were subdivided from Shionogi & Co., Ltd (note that these strains are available also from the Department of Bacteriology, Juntendo University). The NCTC strains are both vancomycin-resistant E. faecalis and available from the National Collection of Type Cultures (NCTC).
smiles,measurement,setting,value
"Cl.O=C(O)c1cn(C2CC2)c2cc(N3CCNCC3)c(F)cc2c1=O [CPFX, ciprofloxacin chloride]",MIC,"[1]; ISA12-1, MRSA",0.5 µg/mL
same,MIC,"[1]; ISA35-1, MRSA",4 µg/mL
same,MIC,"[1]; ISA51-1, MSSA",0.5 µg/mL
same,MIC,"[1]; ISA58-1, MRSA",0.5 µg/mL
same,MIC,"[1]; ISA73-1, MSSA",0.5 µg/mL
same,MIC,"[1]; KBSA34, MRSA",0.5 µg/mL
same,MIC,"[1]; KBSA72, MRSA",128 µg/mL
same,MIC,"[1]; KBSA96, MRSA",32 µg/mL
same,MIC,"[1]; KBSA171, MRSA",64 µg/mL
same,MIC,"[1]; KSA24, MRSA",32 µg/mL
same,MIC,"[1]; KSA31, MRSA",8 µg/mL
same,MIC,"[1]; KSA36, MRSA",128 µg/mL
same,MIC,"[1]; USA300 FPR3757, CA-MRSA",16 µg/mL
same,MIC,"[2]; MR5867-1, first-step quinolone-resistant mutant, grlA E84K",2 µg/mL
same,MIC,"[2]; MR5867-2, second-step mutant, further gyrA S84L",32 µg/mL
same,MIC,"[2]; MS5935-1, first-step quinolone-resistant mutant, grlA S80F",2 µg/mL
same,MIC,"[2]; MS5935-2, second-step mutant, further gyrA S84L",32 µg/mL
same,MIC,"[2]; MS5952-1, first-step quinolone-resistant mutant, grlA S80Y",2 µg/mL
same,MIC,"[2]; MS5952-2, second-step mutant, further gyrA S84L",8 µg/mL
same,MIC,"[2]; MS5952-3, third-step mutant, further grlA A116V",64 µg/mL
same,MIC,"Enterococcus faecalis; E. faecalis 36-15672, quinolone-susceptible enterococci",1 µg/mL
same,MIC,"Enterococcus faecalis; E. faecalis 36-15673, quinolone-susceptible enterococci",1 µg/mL
same,MIC,"Enterococcus faecalis; E. faecalis 36-15678, quinolone-susceptible enterococci",1 µg/mL
same,MIC,"Enterococcus faecalis; E. faecalis 36-15686, quinolone-resistant enterococci",128 µg/mL
same,MIC,"Enterococcus faecalis; E. faecalis 36-15688, quinolone-susceptible enterococci",1 µg/mL
same,MIC,"Enterococcus faecalis; E. faecalis 36-15694, quinolone-resistant enterococci",32 µg/mL
same,MIC,"Enterococcus faecalis; E. faecalis 36-15696, quinolone-susceptible enterococci",1 µg/mL
same,MIC,"Enterococcus faecalis; E. faecalis 36-15703, quinolone-resistant enterococci",32 µg/mL
same,MIC,"Enterococcus faecalis; E. faecalis 36-15716, quinolone-resistant enterococci",128 µg/mL
same,MIC,"Enterococcus faecalis; E. faecalis 36-15718, quinolone-susceptible enterococci",1 µg/mL
same,MIC,"Enterococcus faecalis; E. faecalis 36-15720, quinolone-susceptible enterococci",2 µg/mL
same,MIC,"Enterococcus faecalis; E. faecalis 36-15722, quinolone-resistant enterococci",64 µg/mL
same,MIC,"Enterococcus faecalis; E. faecalis 36-15726, quinolone-resistant enterococci",64 µg/mL
same,MIC,"Enterococcus faecalis; E. faecalis 36-15730, quinolone-susceptible enterococci",2 µg/mL
same,MIC,"Enterococcus faecalis; E. faecalis 36-15736, quinolone-susceptible enterococci",1 µg/mL
same,MIC,"Enterococcus faecalis; E. faecalis 36-15741, quinolone-susceptible enterococci",2 µg/mL
same,MIC,"Enterococcus faecalis; E. faecalis NCTC12201, vancomycin-resistant (VRE), quinolone-susceptible enterococci",1 µg/mL
same,MIC,"Enterococcus faecalis; E. faecalis NCTC12203, vancomycin-resistant (VRE), quinolone-susceptible enterococci",1 µg/mL
"C[C@@H](O)[C@H]1C(=O)N2C(C(=O)O)=C(SCCN=CN)C[C@H]12 [IPM, imipenem]",MIC,"[1]; Staphylococcus aureus, ATCC 29213 / MRSA / MSSA, ATCC 29213, MSSA",< 0.03 µg/mL
same,MIC,"[1]; Staphylococcus aureus, COL, MRSA",64 µg/mL
same,MIC,"[1]; Staphylococcus aureus, FDA209P / MRSA / MSSA, FDA209P, MSSA",< 0.03 µg/mL
same,MIC,"[1]; Staphylococcus aureus, ISA12-1, MRSA",16 µg/mL
same,MIC,"[1]; Staphylococcus aureus, ISA12-2, MRSA",16 µg/mL
same,MIC,"[1]; Staphylococcus aureus, ISA35-1, MRSA",1 µg/mL
same,MIC,"[1]; Staphylococcus aureus, ISA37-1, MSSA",0.125 µg/mL
same,MIC,"[1]; Staphylococcus aureus, ISA49-1, MSSA",0.25 µg/mL
same,MIC,"[1]; Staphylococcus aureus, ISA51-1, MSSA",0.25 µg/mL
same,MIC,"[1]; Staphylococcus aureus, ISA56-3, MRSA",16 µg/mL
same,MIC,"[1]; Staphylococcus aureus, ISA58-1, MRSA",0.125 µg/mL
same,MIC,"[1]; Staphylococcus aureus, ISA62-1, MRSA",2 µg/mL
same,MIC,"[1]; Staphylococcus aureus, ISA73-1, MSSA",0.25 µg/mL
same,MIC,"[1]; Staphylococcus aureus, KBSA32, MRSA",0.25 µg/mL
same,MIC,"[1]; Staphylococcus aureus, KBSA34, MRSA",0.25 µg/mL
same,MIC,"[1]; Staphylococcus aureus, KBSA72, MRSA",0.125 µg/mL
same,MIC,"[1]; Staphylococcus aureus, KBSA96, MRSA",0.25 µg/mL
same,MIC,"[1]; Staphylococcus aureus, KBSA171, MRSA",0.25 µg/mL
same,MIC,"[1]; Staphylococcus aureus, KSA24, MRSA",0.5 µg/mL
same,MIC,"[1]; Staphylococcus aureus, KSA31, MRSA",0.125 µg/mL
same,MIC,"[1]; Staphylococcus aureus, KSA36, MRSA",0.5 µg/mL
same,MIC,"[1]; Staphylococcus aureus, MRSA / MSSA / NCTC 8325, NCTC 8325, MSSA",≤ 0.063 µg/mL
same,MIC,"[1]; Staphylococcus aureus, MRSA / MSSA / USA300, USA300 FPR3757, CA-MRSA",2 µg/mL
same,MIC,"[1]; Staphylococcus aureus, MW2, CA-MRSA",2 µg/mL
same,MIC,"[1]; Staphylococcus aureus, N315, MRSA",8 µg/mL
